Experimental data taken from US7612201B2, “Pyrazole compounds” (Vernalis (Cambridge) Limited, priority 2002, dated 2009).

Target: T1, human full-length HSP90 (Homo sapiens, UniProt P08238)
T1 construct: E. coli expressed human full-length HSP90 protein; made in house; host or cells: E. coli
Assay: Fluorescence polarization (FP) binding assay
Details: FP assay (asterisk in table), activity range
Source text: Fluorescence Polarization Assay
Fluorescence polarization {also known as fluorescence anisotropy} measures the rotation of a fluorescing species in solution, where the larger molecule the more polarized the fluorescence emission. When the fluorophore is excited with polarized light, the emitted light is also polarized. The molecular size is proportional to the polarization of the fluorescence emission.
The fluoroscein-labelled probe—RBT0045864-FAM—
[drawing 121] binds to HSP90 {full-length human, full-length yeast or N-terminal domain HSP90} and the anisotropy {rotation of the probe:protein complex} is measured.
Test compound is added to the assay plate, left to equilibrate and the anisotropy measured again. Any change in anisotropy is due to competitive binding of compound to HSP90, thereby releasing probe.
Chemicals are of the highest purity commercially available and all aqueous solutions are made up in AR water. • 1) Costar 96-well black assay plate #3915 • 2) Assay buffer of (a)100 mM Tris pH7.4; (b) 20 mM KCl; (c) 6 mM MgCl2. Stored at room temperature. • 3) BSA (bovine serum albumen) 10 mg/ml (New England Biolabs # B9001S) • 4) 20 mM probe in 100% DMSO stock concentration. Stored in the dark at RT. Working concentration is 200 nM diluted in AR water and stored at 4° C. Final concentration in assay 80 nM. • 5) E. coli expressed human full-length HSP90 protein, purified >95% (see, e.g., Panaretou et al., 1998) and stored in 50 μL aliquots at −80° C.
Protocol • 1) Add 100 μl 1× buffer to wells 11 A and 12A (=FP BLNK) • 2) Prepare assay mix—all reagents are kept on ice with a lid on the bucket as the probe is light-sensitive.
• 3) Aliquot 100 μl assay mix to all other wells • 4) Seal plate and leave in dark at room temp for 20 minutes to equilibrate
Compound Dilution Plate—1×3 Dilution Series • 1) In a clear 96-well v-bottom plate—{# VWR 007/008/257} add 10 μl 100% DMSO to wells B1 to H11 • 2) To wells A1 to A11 add 17.5 μl 100% DMSO • 3) Add 2.5 μl cpd to A1. This gives 2.5 mM {50×} stock cpd—assuming cpds 20 mM. • 4) Repeat for wells A2 to A10. Control in columns 11 and 12. • 5) Transfer 5 μl from row A to row B—not column 12. Mix well. • 6) Transfer 5 μl from row B to row C. […] In column 11 {provides standard curve} only add compound B11-H11. Add 2 μl of 100 mM standard cpd to wells B12-H12 {is positive control } • 13)The Z′ factor is calculated from zero controls and positive wells. It typically gives a value of 0.7-0.9.
The compounds tested in the above assay were assigned to one of two activity ranges, namely A=<10 μM; B=>10 μM, and those assignments are reported above.

T1 sequence (P08238 whole entry): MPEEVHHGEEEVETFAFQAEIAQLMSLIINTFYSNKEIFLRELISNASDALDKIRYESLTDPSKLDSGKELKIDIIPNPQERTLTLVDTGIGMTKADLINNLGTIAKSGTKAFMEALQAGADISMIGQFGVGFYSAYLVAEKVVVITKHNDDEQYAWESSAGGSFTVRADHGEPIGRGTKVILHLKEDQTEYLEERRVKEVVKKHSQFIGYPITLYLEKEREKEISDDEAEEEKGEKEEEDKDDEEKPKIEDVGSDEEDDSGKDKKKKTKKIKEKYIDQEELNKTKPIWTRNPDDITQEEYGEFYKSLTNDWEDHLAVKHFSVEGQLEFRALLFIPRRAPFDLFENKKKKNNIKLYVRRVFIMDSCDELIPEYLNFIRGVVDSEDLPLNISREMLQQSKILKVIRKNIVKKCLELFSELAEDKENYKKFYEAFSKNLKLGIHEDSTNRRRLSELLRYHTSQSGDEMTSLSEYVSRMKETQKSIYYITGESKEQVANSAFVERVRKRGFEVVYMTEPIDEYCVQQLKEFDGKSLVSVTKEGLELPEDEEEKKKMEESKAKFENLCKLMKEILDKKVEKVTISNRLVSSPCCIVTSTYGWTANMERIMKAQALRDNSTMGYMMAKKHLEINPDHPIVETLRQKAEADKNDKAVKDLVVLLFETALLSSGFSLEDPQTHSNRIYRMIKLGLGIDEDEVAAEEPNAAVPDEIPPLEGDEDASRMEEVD

Row | IC50 | SMILES
1 | > 10 µM | COc1ccc(CC(=O)N2CCN(c3c[nH]nc3-c3cc(Cl)c(O)cc3O)CC2)cc1 [Example 42]
2 | < 10 µM | CNC(=O)c1cccc(CN2CCN(c3c[nH]nc3-c3cc(Cl)c(O)cc3O)CC2)c1 [Example 44]
3 | < 10 µM | CCOC(=O)CN1CCN(c2c[nH]nc2-c2cc(Cl)c(O)cc2O)CC1 [Example 45]
4 | < 10 µM | O=C(O)CN1CCN(c2c[nH]nc2-c2cc(Cl)c(O)cc2O)CC1 [Example 46]
5 | < 10 µM | CC(=O)c1ccc(CN2CCN(c3c[nH]nc3-c3cc(Cl)c(O)cc3O)CC2)cc1 [Example 47]
6 | < 10 µM | O=S(=O)(c1ccsc1)N1CCN(c2c[nH]nc2-c2cc(Cl)c(O)cc2O)CC1 [Example 48]
7 | < 10 µM | Cc1[nH]nc(-c2cc(Cl)c(O)cc2O)c1N1CCNCC1 [Example 49, 4-Chloro-6-(5-methyl-4-piperazin-1-yl-1H-pyrazol-3-yl)-benzene-1,3-diol]
8 | < 10 µM | OCc1[nH]nc(-c2cc(Cl)c(O)cc2O)c1N1CCNCC1 [Example 50, 4-Chloro-6-(5-hydroxymethyl-4-piperazin-1-yl-1H-pyrazol-3-yl)-benzene-1,3-diol]
9 | > 10 µM | CC(=O)Nc1ccc(-c2n[nH]cc2N2CCNCC2)c(O)c1 [Example 53, 3-[4-Acetamido-2-hydroxyphenyl]-4-(piperazin-1-yl)-1H-pyrazole]
10 | > 10 µM | Cc1c[nH]c2cc(O)c(-c3n[nH]cc3N3CCNCC3)cc12 [Example 54, 3-Methyl-5-(4-piperazin-1-yl-1H-pyrazol-3-yl)-1H-indol-6-ol]

Target: T2, yeast HSP90 (Saccharomyces cerevisiae, UniProt P02829)
T2 construct: made in house; host or cells: E. coli
T2 sequence (P02829 whole entry): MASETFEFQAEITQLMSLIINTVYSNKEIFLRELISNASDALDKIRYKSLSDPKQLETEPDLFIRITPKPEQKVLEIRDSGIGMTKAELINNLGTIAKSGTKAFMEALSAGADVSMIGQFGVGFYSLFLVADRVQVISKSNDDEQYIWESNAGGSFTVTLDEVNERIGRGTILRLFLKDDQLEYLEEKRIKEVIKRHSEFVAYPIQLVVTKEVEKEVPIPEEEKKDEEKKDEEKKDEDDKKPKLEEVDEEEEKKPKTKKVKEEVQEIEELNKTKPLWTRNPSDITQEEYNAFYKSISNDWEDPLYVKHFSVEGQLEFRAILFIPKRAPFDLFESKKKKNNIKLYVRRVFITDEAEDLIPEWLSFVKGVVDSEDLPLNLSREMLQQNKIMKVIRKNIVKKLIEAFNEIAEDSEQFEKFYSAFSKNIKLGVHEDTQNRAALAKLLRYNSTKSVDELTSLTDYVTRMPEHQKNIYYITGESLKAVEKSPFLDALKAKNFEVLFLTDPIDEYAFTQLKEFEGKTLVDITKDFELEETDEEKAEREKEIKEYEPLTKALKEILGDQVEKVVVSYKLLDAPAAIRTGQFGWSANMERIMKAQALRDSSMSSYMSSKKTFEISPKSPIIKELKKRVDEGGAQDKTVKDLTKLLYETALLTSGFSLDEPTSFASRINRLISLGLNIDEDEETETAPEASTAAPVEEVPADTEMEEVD
Assay: Malachite green ATPase assay
Assay type: biochemical
Details: activity range
Source text: The intrinsic ATPase activity of HSP90 may be measured using yeast HSP90 as a model system. The assay, based on the use of malachite green for the measurement of inorganic phosphate, was used to test the HSP90 inhibitory activity of the compounds of the Examples herein.
Malachite Green ATPase Assay
Chemicals are of the highest purity commercially available and all aqueous solutions are made up in AR water. Because of the need to minimise contamination with inorganic phosphate, precautions should be taken with solutions and apparatus used in the assays. Glassware and pH meters are rinsed with double distilled or deionised water before use and, wherever possible, plastic ware should be used. Gloves are worn for all procedures. • (1) Greiner 384-well (Greiner 781101) or Costar 384-well flat-bottomed polystyrene multiwell plates (VWR). • (2) Assay buffer of (a) 100 mM Tris-HCl, pH 7.4, (b) 150 mM KCl, (c) 6 mM MgCl2. Stored at room temperature. • (3) 0.0812% (w/v) malachite green (M 9636, Sigma Aldrich Ltd., Poole, UK). Stored at room temperature. • (4) 2.32% (w/v) polyvinyl alcohol USP (P 1097, Sigma Aldrich Ltd, Poole, UK) in boiling water (see Comment 1), allowed to cool, and stored at room temperature. • (5) 5.72% (w/v) ammonium molybdate in 6 M hydrochloric acid. Stored at room temperature. • (6) 34% (w/v) sodium citrate. Stored at room temperature. • (7) 100 mM ATP, disodium salt, special quality (47699, Sigma Aldrich). Stored at −20° C. • (8) E. coli expressed yeast HSP90 protein, purified >95% (see, e.g., Panaretou et al., 1998) and stored in 50 uL aliquots at −80° C.
Method • 1. Dilute test compounds to 500 μM in AR water (DMSO concentration will be 2.5%). Transfer 2.5 μl of these compounds directly from the daughter plate to the assay plate, giving a final assay concentration of 100 μM. To obtain 12 point IC50 values, perform serial dilutions 1:2 to produce a range of assay concentrations from 100 μM to 97.6 nM (2.5% DMSO), and transfer 2.5 μl of each concentration into the assay plate. Column 1 in the assay plate contains no compound, as a negative control. An additional row with no compound is also used as a background. • 2. Prepare ATP by diluting 100 mM stock to 925 μM with assay buffer, and aliquot 5 μl of diluted ATP to each well including controls (final assay concentration 370 μM). • 3. Add 5 μl of buffer to background row. • 4. Dilute enzyme preparation to 1.05 μM with assay buffer, and aliquot 5 μl into each compound well and to the negative control column. • 5. Collect the reagents to the bottom of the well, cover plate with plate seal and incubate overnight at 37 degC. • 6. First thing in the morning prepare the Malachite Green Reagent. Add 2 parts of Malachite Green Solution, 1 part of Polyvinyl Alcohol Solution, 1 part of Ammonium Molybdate Solution, and 2 parts of AR water. • 7. Invert to mix, and leave for approximately 1 hour until the colour turns from brown to golden yellow. • 8. Add 40 μl of Malachite Green Reagent to each well, allow 5 mins for colour to develop. • 9. Add 5 μl of Sodium Citrate Reagent to each well (see comment 2) • 10. Re-cover with plate seal and shake on plate shaker for at least 15 mins. • 11. Measure Absorbance at 620 nm using a suitable plate reader (e.g. Victor, Perkin Elmer Life Sciences, Milton Keynes, UK).
Comments • (1) The polyvinyl alcohol dissolves in boiling water with difficulty and stirring for 2-3 h is required. • (2) The time interval between addition of the malachite green reagent and the sodium citrate should be kept as short as possible in order to reduce the non-enzymatic hydrolysis of ATP. Once the sodium citrate is added, the colour is stable for up to 4 h at room temperature. • (3) Compounds can be added to the assay plates using a Biomek FX Robot (Beckman Coulter).

Row | SMILES | IC50
11 | Oc1cc(O)c(-c2n[nH]cc2N2CCNCC2)cc1Cl [Example 2, 4-Chloro-6-(4-piperazin-1-yl-1H-pyrazol-3-yl)-benzene-1,3-diol] | < 50 µM
12 | Cc1ccc(C)c(CCc2cc(-c3n[nH]cc3N3CCNCC3)c(O)cc2O)c1 [Example 74] | < 50 µM
13 | Cc1ccccc1CCc1cc(-c2n[nH]cc2N2CCNCC2)c(O)cc1O [Example 75] | < 50 µM
14 | COc1ccc(CCc2cc(-c3n[nH]cc3N3CCNCC3)c(O)cc2O)cc1 [Example 76] | < 50 µM
15 | Oc1cc(O)c(-c2n[nH]cc2N2CCC(NCc3ccc4c(c3)OCO4)CC2)cc1Br [Example 83] | < 50 µM
16 | O=[N+]([O-])c1ccc(CNC2CCN(c3c[nH]nc3-c3cc(Br)c(O)cc3O)CC2)cc1 [Example 84] | < 50 µM
17 | NS(=O)(=O)c1ccc(CNC2CCN(c3c[nH]nc3-c3cc(Br)c(O)cc3O)CC2)cc1 [Example 86] | < 50 µM

Next, values leading:

Row | IC50 | SMILES
18 | < 50 µM | Oc1cc(O)c(-c2n[nH]cc2N2CCC(NCc3ccccc3)CC2)cc1Br [Example 79]
19 | < 50 µM | Oc1cc(O)c(-c2n[nH]cc2N2CCC(NCc3ccc(F)cc3)CC2)cc1Br [Example 80]
20 | < 50 µM | COc1ccc(CNC2CCN(c3c[nH]nc3-c3cc(Br)c(O)cc3O)CC2)cc1 [Example 81]
21 | < 50 µM | Oc1cc(O)c(-c2n[nH]cc2N2CCC(NCc3ccc(Cl)cc3)CC2)cc1Br [Example 82]
22 | < 50 µM | Oc1cc(O)c(-c2n[nH]cc2N2CCC(NCc3ccc(Br)cc3)CC2)cc1Br [Example 85]
23 | < 50 µM | CCNC1CCN(c2c[nH]nc2-c2cc(Br)c(O)cc2O)CC1 [Example 97]
24 | < 50 µM | OCCNC1CCN(c2c[nH]nc2-c2cc(Br)c(O)cc2O)CC1 [Example 98]

Test system: not listed separately
Assay: Sulforhodamine B (SRB) growth inhibition assay
Assay type: cell-based
Details: SRB growth arrest assay
Experimental: A growth inhibition assay was also employed for the evaluation of candidate HSP90 inhibitors:
Day 1 • 1) Determine cell number by haemocytometer. • 2) Using an 8 channel multipipettor, add 160 μl of the cell suspension (3600 cells/well or 2×10^4 cells/ml) to each well of a 96-well microtitre plate. • 3) Incubate overnight at 37° C. in a CO2 incubator.
Day 2 • 4) Stock solutions of drugs are prepared, and serial dilutions of each drug are performed in medium to give final concentrations in wells. • 5) Using a multipipettor, 40 μl of drug (at 5× final concentration) is added to quadruplicate wells. • 6) Control wells are at either side of the 96 well plates, where 40 μl of medium is added. • 7) Incubate plates in CO2 incubator for 4 days (48 hours).
Day 6 • 8) Tip off medium into sink and immerse plate slowly into 10% ice cold trichloroacetic acid (TCA). […] Leave for 15 mins. • 12) Wash off unbound SRB stain with four washes of 1% acetic acid. • 13) Dry plates in incubator. • 14) Solubilise SRB using 100 μl of 10 mM Tris base and put plates on plate shaker for 5 mins. • 15) Determine absorbance at 540 nm using a plate reader. Calculate mean absorbance for quadruplicate wells and express as a percentage of value for control, untreated wells. • 16) Plot % absorbance values versus log drug concentration and determine the IC50.

Row | SMILES | IC50
25 | Oc1cc(O)c(-c2n[nH]cc2N2CCNCC2)cc1Cl [Example 2, 4-Chloro-6-(4-piperazin-1-yl-1H-pyrazol-3-yl)-benzene-1,3-diol] | < 50 µM
